In general, IC50 refers to the point on the concentration scale where inhibition reaches its midpoint.

Where two headings read alike, the source gives them in different places.

Our source for the IC50 values is patent US20100168102A9, “Amide Derivatives as Kinase Inhibitors” (Devgen NV, priority 2005, published 2010).

Experiment [1] deals with T1, PKC epsilon (Homo sapiens, UniProt Q02156).
T1 construct: purchased Invitrogen P2282
T1 sequence (Q02156 1-737): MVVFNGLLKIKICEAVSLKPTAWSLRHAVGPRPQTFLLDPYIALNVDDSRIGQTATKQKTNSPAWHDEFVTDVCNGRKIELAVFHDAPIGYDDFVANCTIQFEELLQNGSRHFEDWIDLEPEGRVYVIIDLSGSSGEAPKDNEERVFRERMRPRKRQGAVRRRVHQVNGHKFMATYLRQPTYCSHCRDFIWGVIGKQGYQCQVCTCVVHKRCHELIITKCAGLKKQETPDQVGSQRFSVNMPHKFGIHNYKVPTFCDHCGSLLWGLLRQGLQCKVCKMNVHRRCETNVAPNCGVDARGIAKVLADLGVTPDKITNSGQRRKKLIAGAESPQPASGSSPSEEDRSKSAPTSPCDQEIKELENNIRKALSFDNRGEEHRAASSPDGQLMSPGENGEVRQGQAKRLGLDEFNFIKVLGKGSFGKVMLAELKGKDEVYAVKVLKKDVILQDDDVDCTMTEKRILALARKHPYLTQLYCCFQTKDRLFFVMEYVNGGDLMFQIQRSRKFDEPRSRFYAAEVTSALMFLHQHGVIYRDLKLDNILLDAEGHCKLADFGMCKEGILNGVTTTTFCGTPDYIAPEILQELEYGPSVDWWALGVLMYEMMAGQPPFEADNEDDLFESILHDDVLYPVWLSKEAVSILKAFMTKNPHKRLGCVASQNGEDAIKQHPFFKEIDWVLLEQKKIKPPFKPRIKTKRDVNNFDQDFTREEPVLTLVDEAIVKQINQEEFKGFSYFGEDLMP
The experiment can be described thus: Biochemical assay for PKC epsilon (fluorescence polarization, Protein Kinase C Assay Kit, Red). To be noted: read-out: IC50 μM PKCε. Summed up: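 PKC epsilon at 10 ng/ml final was preincubated 30 min at room temperature with compound in HEPES pH 7.4 with DTT and Triton X-100. ATP/protein substrate was then added in buffer with MgCl2 and CaCl2 for 80 min. The reaction was stopped with EDTA, phosphorylation was detected by fluorescence polarization with rhodamine tracer and anti-phosphoserine antibody, and IC50 values came from curve fits.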
In general terms: In fluorescence polarisation assays a small probe gives low polarisation when free and higher when bound to something large.

Experiment [2] addresses T2, human ROCKα/ROCKII mix (Homo sapiens, UniProt O75116).
T2 construct: purchased Upstate Biotechnology 14-451
Briefly: Biochemical assay for ROCK (fluorescence polarization, ROCK IMAP Kit).

Setting [3] is: Table 2, compounds of Formula XIII.

T2 sequence (O75116 11-552 limits assumed): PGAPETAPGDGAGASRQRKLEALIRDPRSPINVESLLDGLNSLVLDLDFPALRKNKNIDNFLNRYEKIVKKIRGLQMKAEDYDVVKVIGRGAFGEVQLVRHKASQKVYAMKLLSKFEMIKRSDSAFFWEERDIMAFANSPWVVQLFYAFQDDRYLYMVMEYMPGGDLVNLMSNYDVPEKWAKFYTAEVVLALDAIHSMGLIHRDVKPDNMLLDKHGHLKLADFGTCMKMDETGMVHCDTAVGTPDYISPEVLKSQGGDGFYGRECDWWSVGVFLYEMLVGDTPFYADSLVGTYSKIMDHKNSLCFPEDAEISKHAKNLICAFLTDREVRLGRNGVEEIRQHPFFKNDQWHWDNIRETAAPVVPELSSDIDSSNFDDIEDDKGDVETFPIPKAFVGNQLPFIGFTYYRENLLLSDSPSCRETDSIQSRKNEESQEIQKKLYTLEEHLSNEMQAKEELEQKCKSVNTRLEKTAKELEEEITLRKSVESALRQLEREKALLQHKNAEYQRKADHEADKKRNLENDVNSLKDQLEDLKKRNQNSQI

For the compound `CCCCNC(=O)NCC(N)c1ccc(C(=O)Nc2ccncc2)cc1` (centres unmarked) [Compound 2, 4-[1-amino-2-(3-butyl-ureido)-ethyl]-N-pyridin-4-yl-benzamide], the IC50 in experiment [1] and in experiment [2] was 0.5 to 5 µM in each case.
As to `CC(C)(C)NC(=O)NCC(N)c1ccc(C(=O)Nc2ccncc2)cc1` (centres unmarked) [Compound 3, 4-[1-amino-2-(3-tert-butyl-ureido)-ethyl]-N-pyridin-4-yl-benzamide], the half-maximal inhibitory concentration (IC50) in experiment [1] and in experiment [2] was 0.5 to 5 µM in each case.
As for `NC(CNC(=O)NC1CCCC1)c1ccc(C(=O)Nc2ccncc2)cc1` (centres unmarked) [Compound 4, 4-[1-amino-2-(3-cyclopentyl-ureido)-ethyl]-N-pyridin-4-yl-benzamide], the IC50 in experiment [1] and in experiment [2] was 0.5 to 5 µM throughout.
Consider `NC(CNC(=O)NC1CCCCC1)c1ccc(C(=O)Nc2ccncc2)cc1` (centres unmarked) [Compound 5, 4-[1-amino-2-(3-cyclohexyl-ureido)-ethyl]-N-pyridin-4-yl-benzamide], for which the IC50 in experiment [1] lay in the range of 5 to 50 µM; in experiment [2], 0.5 to 5 µM.
The corresponding values for `CCOC(=O)CCNC(=O)NCC(N)c1ccc(C(=O)Nc2ccncc2)cc1` (centres unmarked) [Compound 6, 3-(3-{2-amino-2-[4-(pyridin-4-ylcarbamoyl)-phenyl]-ethyl}-ureido)-propionic acid ethyl ester] are 5 to 50 µM and 0.5 to 5 µM.
The corresponding values for `NC(CNC(=O)NCc1ccccc1)c1ccc(C(=O)Nc2ccncc2)cc1` (centres unmarked) [Compound 7, 4-[1-amino-2-(3-benzyl-ureido)-ethyl]-N-pyridin-4-yl-benzamide] are 0.5 to 5 µM and 0.05 to 0.5 µM.
The corresponding values for `Cc1ccc(CNC(=O)NCC(N)c2ccc(C(=O)Nc3ccncc3)cc2)cc1` (centres unmarked) [Compound 8, 4-{1-amino-2-[3-(4-methyl-benzyl)-ureido]-ethyl}-N-pyridin-4-yl-benzamide] are 0.5 to 5 µM and 0.05 to 0.5 µM.
As for `NC(CNC(=S)Nc1ccccc1)c1ccc(C(=O)Nc2ccncc2)cc1` (centres unmarked) [Compound 11, 4-[1-amino-2-(3-phenyl-thioureido)-ethyl]-N-pyridin-4-yl-benzamide], the IC50 lay in the range of 0.5 to 5 µM in experiment [1] and 0.05 to 0.5 µM in experiment [2].
The corresponding values for `Cc1ccccc1NC(=S)NCC(N)c1ccc(C(=O)Nc2ccncc2)cc1` (centres unmarked) [Compound 12, 4-[1-amino-2-(3-o-tolyl-thioureido)-ethyl]-N-pyridin-4-yl-benzamide] are 0.05 to 0.5 µM and 0.5 to 5 µM.
For `NC(CNC(=S)Nc1ccc(Cl)cc1)c1ccc(C(=O)Nc2ccncc2)cc1` (centres unmarked) [Compound 13, 4-{1-amino-2-[3-(4-chloro-phenyl)-thioureido]-ethyl}-N-pyridin-4-yl-benzamide] the same measures were 0.05 to 0.5 µM and 0.05 to 0.5 µM.
For `COc1ccc(NC(=S)NCC(N)c2ccc(C(=O)Nc3ccncc3)cc2)cc1` (centres unmarked) [Compound 14, 4-{1-amino-2-[3-(4-methoxy-phenyl)-thioureido]-ethyl}-N-pyridin-4-yl-benzamide] the same measures were 0.5 to 5 µM and 0.5 to 5 µM.
Take `NC(CNC(=S)Nc1ccc(OC(F)(F)F)cc1)c1ccc(C(=O)Nc2ccncc2)cc1` (centres unmarked) [Compound 15, 4-{1-amino-2-[3-(4-trifluoromethoxy-phenyl)-thioureido]-ethyl}-N-pyridin-4-yl-benzamide]: the figures for the IC50 in experiment [1] and in experiment [2] were 5 to 50 µM and 0.5 to 5 µM, respectively.
For `NC(CNC(=S)Nc1ccc(C(F)(F)F)cc1)c1ccc(C(=O)Nc2ccncc2)cc1` (centres unmarked) [Compound 16, 4-{1-amino-2-[3-(4-trifluoromethyl-phenyl)-thioureido]-ethyl}-N-pyridin-4-yl-benzamide] the same measures were 0.5 to 5 µM and 0.5 to 5 µM.
In the case of `NC(CNC(=S)Nc1cccc2ccccc12)c1ccc(C(=O)Nc2ccncc2)cc1` (centres unmarked) [Compound 17, 4-[1-amino-2-(3-naphtalen-1-yl-thioureido)-ethyl]-N-pyridin-4-yl-benzamide], the concentration for half-maximal inhibition (IC50) in experiment [1] and in experiment [2] was 0.05 to 0.5 µM each time.
Turning to `CC(C)(C)c1ccc(NC(=S)NCC(N)c2ccc(C(=O)Nc3ccncc3)cc2)cc1` (centres unmarked) [Compound 18, 4-{1-amino-2-[3-(4-tert-butyl-phenyl)-thioureido]-ethyl}-N-pyridin-4-yl-benzamide], the IC50 in experiment [1] lay in the range of 5 to 50 µM; in experiment [2] it was 0.5 to 5 µM.
The corresponding values for `NC(CNC(=O)Nc1ccccc1F)c1ccc(C(=O)Nc2ccncc2)cc1` (centres unmarked) [Compound 20, 4-{1-amino-2-[3-(2-fluoro-phenyl)-ureido]-ethyl}-N-pyridin-4-yl-benzamide] are 0.5 to 5 µM and 0.05 to 0.5 µM.
On to `CN(C)c1ccc(NC(=O)NCC(N)c2ccc(C(=O)Nc3ccncc3)cc2)cc1` (centres unmarked) [Compound 21, 4-{1-amino-2-[3-(4-dimethylamino-phenyl)-ureido]-ethyl}-N-pyridin-4-yl-benzamide], for which the concentration for half-maximal inhibition (IC50) lay in the range of 0.5 to 5 µM in experiment [1] and 0.05 to 0.5 µM in experiment [2].
The corresponding values for `NC(CNC(=O)Nc1ccc(-c2ccccc2)cc1)c1ccc(C(=O)Nc2ccncc2)cc1` (centres unmarked) [Compound 22, 4-[1-amino-2-(3-biphenyl-4-yl-ureido)-ethyl]-N-pyridin-4-yl-benzamide] are 0.5 to 5 µM and 0.5 to 5 µM.
The corresponding values for `NC(CNC(=O)Nc1ccc2ccccc2c1)c1ccc(C(=O)Nc2ccncc2)cc1` (centres unmarked) [Compound 23, 4-[1-amino-2-(3-naphtalen-2-yl-ureido)-ethyl]-N-pyridin-4-yl-benzamide] are 0.5 to 5 µM and 0.05 to 0.5 µM.
Consider `CC(C)(C)c1ccc(NC(=O)NCC(N)c2ccc(C(=O)Nc3ccncc3)cc2)cc1` (centres unmarked) [Compound 24, 4-{1-amino-2-[3-(4-tert-butyl-phenyl)-ureido]-ethyl}-N-pyridin-4-yl-benzamide], for which the IC50 in experiment [1] lay within 5 to 50 µM; in experiment [2] it was 0.5 to 5 µM.
For `Cc1ccccc1NC(=O)NCC(N)c1ccc(C(=O)Nc2ccncc2)cc1` (centres unmarked) [Compound 25, 4-[1-amino-2-(3-o-tolyl-ureido)-ethyl]-N-pyridin-4-yl-benzamide] the same measures were 0.5 to 5 µM and 0.05 to 0.5 µM.
The corresponding values for `Cc1cc(Cl)ccc1NC(=O)NCC(N)c1ccc(C(=O)Nc2ccncc2)cc1` (centres unmarked) [Compound 26, 4-{1-amino-2-[3-(4-chloro-2-methyl-phenyl)-ureido]-ethyl}-N-pyridin-4-yl-benzamide] are 0.05 to 0.5 µM and 0.05 to 0.5 µM.
The corresponding values for `NC(CNC(=O)Nc1cccc2ccccc12)c1ccc(C(=O)Nc2ccncc2)cc1` (centres unmarked) [Compound 28, 4-[1-amino-2-(3-naphtalen-1-yl-ureido)-ethyl]-N-pyridin-4-yl-benzamide] are 0.5 to 5 µM and 0.05 to 0.5 µM.
Take `COc1cccc(NC(=O)NCC(N)c2ccc(C(=O)Nc3ccncc3)cc2)c1` (centres unmarked) [Compound 29, 4-{1-amino-2-[3-(3-methoxy-phenyl)-ureido]-ethyl}-N-pyridin-4-yl-benzamide]: the half-maximal inhibitory concentration (IC50) in experiment [1] lay within 0.5 to 5 µM; in experiment [2] it was 0.05 to 0.5 µM.
For `COc1ccc(NC(=O)NCC(N)c2ccc(C(=O)Nc3ccncc3)cc2)cc1` (centres unmarked) [Compound 30, 4-{1-amino-2-[3-(4-methoxy-phenyl)-ureido]-ethyl}-N-pyridin-4-yl-benzamide] the same measures were 0.5 to 5 µM and 0.05 to 0.5 µM.
As for `CC(=O)NCC(N)c1ccc(C(=O)Nc2ccncc2)cc1` (centres unmarked) [Compound 31, 4-(2-Acetylamino-1-amino-ethyl)-N-pyridin-4-yl-benzamide], the IC50 fell in the range of 5 to 50 µM in experiment [1] (setting [3]) and 0.5 to 5 µM in experiment [2] (setting [3]).
Regarding `CCCC(=O)NCC(N)c1ccc(C(=O)Nc2ccncc2)cc1` (centres unmarked) [Compound 32, 4-(1-Amino-2-butyrylamino-ethyl)-N-pyridin-4-y-benzamide], the half-inhibitory concentration (IC50) in experiment [1] (setting [3]) and in experiment [2] (setting [3]) was 0.5 to 5 µM throughout.
As to `CCCCC(=O)NCC(N)c1ccc(C(=O)Nc2ccncc2)cc1` (centres unmarked) [Compound 33, 4-(1-Amino-2-pentanoylamino-ethyl)-N-pyridin-4-yl-benzamide], the half-maximal inhibitory concentration (IC50) in experiment [1] (setting [3]) and in experiment [2] (setting [3]) was 0.5 to 5 µM throughout.
Take `CC(C)CC(=O)NCC(N)c1ccc(C(=O)Nc2ccncc2)cc1` (centres unmarked) [Compound 34, 4-[1-Amino-2-(3-methyl-butyrylamino)-ethyl]-N-pyridin-4-yl-benzamide]: the IC50 in experiment [1] (setting [3]) and in experiment [2] (setting [3]) was 0.5 to 5 µM in each case.
For `CCC(C)C(=O)NCC(N)c1ccc(C(=O)Nc2ccncc2)cc1` (centres unmarked) [Compound 35, 4-[1-Amino-2-(2-methyl-butyrylamino)-ethyl]-N-pyridin-4-yl-benzamide], the concentration for half-maximal inhibition (IC50) in experiment [1] (setting [3]) and in experiment [2] (setting [3]) was 0.5 to 5 µM each time.
For `CC(C)CCC(=O)NCC(N)c1ccc(C(=O)Nc2ccncc2)cc1` (centres unmarked) [Compound 36, 4-[1-Amino-2-(4-methyl-pentanoylamino)-ethyl]-N-pyridin-4-yl-benzamide], the IC50 in experiment [1] (setting [3]) and in experiment [2] (setting [3]) was 0.5 to 5 µM in each case.
